Reference: patent publication US5026836A, “6-sulfenamide, 6-sulfinamide and 6-sulfonamide purines, purine nucleosides, purine nucleotides, pharmaceutical compositions, and processes of making” (priority 1988, dated 1991)
Entries after “also recorded” stand apart in the source; their conditions may differ. Read-outs that look alike come from different tables or passages of the source.

Experiments:
L1210 cells = assay: Life span of BDF1 mice inoculated ip with 10^6 L1210 leukemia cells; format: in vivo, mouse
Method: As illustrative examples of use of the compounds of the invention the following examples are given. […] These standard tests utilize protocols developed under the auspices of the Developmental Therapeutics Program, Division of Cancer Treatment, National Cancer Institute, Bethesda, Md., U.S.A. Except as otherwise indicated the tests conform to these protocols and are evaluated utilizing criteria defined by the protocols.
Values below 25% are considered capable of producing effective therapy, those below 10% are considered good and those below 5% are considered very good. This expresses the percent of the cells which survived treatment based upon the original cells in the inoculum. Those tests expressed as increases in life span (% ILS) indicate the increased life span of the drug treated group compared to a control group.
As an indicator of reproducible activity, compounds of the invention and other known cancer chemotherapeutic agents were screened against L1210 lymphoid leukemia in vivo utilizing the mouse as a test species. Normal NCI protocols for this test require 10^5 seed cells of the L1210 cell line.
Cytosine Arabinoside must be given every three hours.
Mice were inoculated intraperitoneally on day 0 with a million cells of murine leukemia L1210. Drug was given qd days 1, 4 and 7. Increased life span is the mean increase in the treated group presented as a percentage of the mean life span of control mice.
Mice were inoculated intraperitoneally on day 0 with a million cells of murine leukemia L1210. Drugs were given qd days 1, 3, 5 and 7. Increased life span is presented as a percentage of the mean life span of control mice.

L1210/ARA-C cells = assay: Cytosine Arabinoside resistant L1210 cells surviving treatment; format: in vivo, mouse
L1210/MTX cells = assay: Methotrexate resistant L1210 cells surviving treatment; format: in vivo, mouse
Method: In Example I Compound 19 was tested against Methotrexate resistant L1210 cells.

L1210/5FU cells = assay: 5-Fluorouracil resistant L1210 cells surviving treatment; format: in vivo, mouse
Method: (§1) In Examples G through K Compound 19 was tested against L1210 cell lines which had developed resistance to other known cancer chemotherapeutic agents.
In Example J, the results of which are shown in Table 10 below, Compound 19 was tested against 5-Fluorouracil resistant cells.

L1210/Compound 18 cells = assay: Compound 18 resistant L1210 cells surviving treatment; format: in vivo, mouse
Method: as §1
In Example K, the results of which are shown in Table 11 below, Compound 19 was tested against drug resistant cell lines developed against Compound 18. […]

[1] = Toxicity / maximum tolerated dosage in mice; format: in vivo
Method: In Example N other compounds of the invention were tested against L1210 cells. […] Activity in Table 14-a is tabulated as both increases in life span and as cells surviving treatment and that in table 14-b as T/C.

[2] = tested on: reticulum cell sarcoma M5076; assay: Reticulum cell sarcoma M5076 tumor weight in C57B1/6 mice; format: in vivo, mouse; conditions: qd days 1,3,5,7,9,11; for Tumor wt, staging day (mean ± 1SD): before treatment (day 15 post inoculation); for Tumor wt, evaluation day (mean ± 1SD): day 12 of treatment
Method: In this example Compound 19 was tested against reticulum cell sarcoma M5076. For this and certain other tests below, test results are shown as δT/δC. Utilizing this protocol the difference in tumor weight before treatment and after treatment of the treated animals compared to the control animals is determined.

Lewis lung carcinoma = assay: Activity against Lewis lung carcinoma; conditions: in vivo
[3] = tested on: drug resistant cell lines; assay: Generation of drug resistant cell lines
[4] = Toxicity / maximum tolerated dosage in mice; format: in vivo; conditions: ip 104 mg/kg/inj, bid days 1,4,7; 11 CDF1 mice with Colon 26

Structure (SMILES): Nc1nc([S+](N)[O-])c2ncn([C@@H]3O[C@H](CO)[C@@H](O)[C@H]3O)c2n1 (mixture of isomers) [Compound 19, 2-amino-9-β-D-ribofuranosyl-9H-purine-6-sulfinamide]
- % ILS (L1210 cells; oral 37 mg/kg/inj, bid days 1,3,5,7): 49%
- Increased life span (L1210 cells; oral 37 mg/kg/inj, qd days 1,4,7): 45%
- Activity against I.P. L1210 cells, T/C (L1210 cells; oral 62 mg/kg, bid days 1,4,7): 140.0%
- Activity against I.P. L1210 cells, T/C (L1210 cells; oral 62 mg/kg, qd days 1,4,7): 144.6%
- % ILS (L1210 cells; oral 62 mg/kg/inj, bid days 1,4,7): 40%
- Increased life span (L1210 cells; oral 62 mg/kg/inj, qd days 1,4,7): 45%
- Activity against I.P. L1210 cells, T/C (L1210 cells; oral 104 mg/kg, qd days 1,4,7): 138.5%
- Increased life span (L1210 cells; oral 104 mg/kg/inj, qd days 1,4,7): 38%
- Activity against I.P. L1210 cells, T/C (L1210 cells; oral 173 mg/kg, qd days 1,4,7): 138.5%
- Increased life span (L1210 cells; oral 173 mg/kg/inj, qd days 1,4,7): 38%
- oral activity (words) (L1210 cells; oral, listed as 2-amino-9-β-D-ribofuranosyl-9H-purine-6-sulfinamide): active in both an oral and an injectable form; also recorded: orally active
- % ILS (L1210 cells; single agent day 1, Compound 19 173 mg/kg, Compound 18 22 mg/kg (Table 12)): 88%
- % ILS (L1210 cells; single agent day 1, Compound 19 173 mg/kg, Tiazofurin 22 mg/kg (Table 13)): 81%
- L1210/ARA-C cells surviving (% of day zero inoculum) (L1210/ARA-C cells; ip 104 mg/kg/inj, qd days 1,4,7): 1.7%
- L1210/ARA-C cells surviving (% of day zero inoculum) (L1210/ARA-C cells; ip 173 mg/kg/inj, qd day 1): 0.02%
- L1210/ARA-C cells surviving (% of day zero inoculum) (L1210/ARA-C cells; ip 173 mg/kg/inj, qd days 1,4,7): 0.6%
- efficacy against ARA-C resistant line vs parent (L1210/ARA-C cells; mouse, in vivo): greater efficacy against this resistant cell line than it did to the parent non-drug resistant L1210 cells
- activity against Methotrexate resistant cells (L1210/MTX cells; depending on dose level and regimen): activity can be seen against these Methotrexate resistant cells
- L1210/MTX cells surviving (% of day zero inoculum) (L1210/MTX cells; ip 104 mg/kg/day, qd days 1,4,7): 238.4%
- L1210/MTX cells surviving (% of day zero inoculum) (L1210/MTX cells; ip 173 mg/kg/day, qd day 1): 1.6%
- L1210/MTX cells surviving (% of day zero inoculum) (L1210/MTX cells; ip 173 mg/kg/day, qd days 1,4,7): 33.8%
- L1210/5FU cells surviving (% of day zero inoculum) (L1210/5FU cells; ip 62 mg/kg/day, qd days 1-7): 933%
- L1210/5FU cells surviving (% of day zero inoculum) (L1210/5FU cells; ip 104 mg/kg/day, qd days 1,3,5,7): 525%
- L1210/5FU cells surviving (% of day zero inoculum) (L1210/5FU cells; ip 104 mg/kg/day, qd days 1-7): 3%
- L1210/5FU cells surviving (% of day zero inoculum) (L1210/5FU cells; ip 173 mg/kg/day, qd days 1,3,5,7): 13%
- activity against 5-Fluorouracil resistant cells (L1210/5FU cells; large dosages): highly active against these resistant cells
- L1210/Compound 18 cells surviving (% of day zero inoculum) (L1210/Compound 18 cells; ip 62 mg/kg/day, bid day 1): 27.4%
- L1210/Compound 18 cells surviving (% of day zero inoculum) (L1210/Compound 18 cells; ip 62 mg/kg/day, qd day 1): 100.0%
- L1210/Compound 18 cells surviving (% of day zero inoculum) (L1210/Compound 18 cells; ip 104 mg/kg/day, qd day 1): 17.9%
- L1210/Compound 18 cells surviving (% of day zero inoculum) (L1210/Compound 18 cells; ip 173 mg/kg/day, qd day 1): 7.5%
- activity against Compound 18 resistant L1210 (L1210/Compound 18 cells; mouse, in vivo): effective against those L1210 cell lines which have developed resistance against Compound 18; also recorded: active against cells which developed resistance to Compound 18
- mice which died from drug toxicity ([1]; ip 104 mg/kg/inj, bid days 1,4,7, L1210-inoculated BDF1 mice): 1
- toxicity (T/C column) ([1]; ip 288 mg/kg, qd day 1, L1210-inoculated BDF1 mice): TOX
- mortality ([1]; mouse, in vivo, 104 mg/kg, bid days 1,4,7, L1210-inoculated mice, read-out: toxic deaths per number of animals in test group (converted)): 20%
- Tumor wt, staging day (mean ± 1SD) ([2]; ip 110.8 mg/kg/inj group): 396 ± 116 mg
- Tumor wt, staging day (mean ± 1SD) ([2]; ip 138.4 mg/kg/inj group): 355 ± 79 mg
- Tumor wt, staging day (mean ± 1SD) ([2]; ip 173.0 mg/kg/inj group): 354 ± 81 mg
- Tumor wt, evaluation day (mean ± 1SD) ([2]; ip 110.8 mg/kg/inj): 1121 ± 343 mg
- Tumor wt, evaluation day (mean ± 1SD) ([2]; ip 138.4 mg/kg/inj): 855 ± 325 mg
- Tumor wt, evaluation day (mean ± 1SD) ([2]; ip 173.0 mg/kg/inj): 409 ± 385 mg
- δT/δC ([2]; ip 110.8 mg/kg/inj): 65.8
- δT/δC ([2]; ip 138.4 mg/kg/inj): 45.4
- δT/δC ([2]; ip 173.0 mg/kg/inj): 5.0
- activity against Lewis lung carcinoma (Lewis lung carcinoma): No activity
- generation of drug resistant cell lines (words) [3]: has not been found to generate resistant cell lines
- generation of drug resistant cell lines (words) ([3]; listed as 2-amino-9-β-D-ribofuranosyl-9H-purine-6-sulfinamide): lack of generating resistant cell lines; also recorded: lack of resistance cell generation
- toxic deaths [4]: 6
